Laboratory results: PMC11048566, “The Development of a Regulator of Human Serine Racemase for N-Methyl-D-aspartate Function” (Biomedicines, 2024)
Read-outs that look alike come from different tables or passages of the source.

What was measured:
[1] = system: MK-801-induced PPI deficit; experiment: Prepulse inhibition test in MK-801-treated mice; assay type: in vivo, C57BL/6J male mice; conditions: 1 mg/kg oral, 0.3 mg/kg MK-801 IP; PPI 6 and PPI 10; p < 0.05, n = 14
Method: For behavioral studies, α12G was dissolved in 35% PEG-400 and administrated by oral gavage 20 min prior to the MK-801 insult. MK-801 (Sigma-Aldrich, St. Louis, MO, USA) was administrated via intraperitoneal (IP) injection 20 min prior to the behavioral tests, with the dosage of 0.2 mg/kg for the open field test and novel object recognition test and 0.3 mg/kg for the prepulse inhibition test.
C57BL/6J male mice were randomly assigned into five groups, 6–21 mice per group, (1) saline control, (2) MK-801, (3) 1 mg/kg α12G + MK-801, (4) 3.5 mg/kg α12G + MK-801, and (5) 10 mg/kg α12G + MK-801. Prepulse inhibition (PPI), a measurement of sensorimotor gating, served as a biomarker of schizophrenia. Using the SR-LAB startle apparatus (San Diego Instruments, San Diego, CA, USA), the PPI ratio with startle response was elicited by various acoustic stimuli. Each C57BL/6J male mouse was placed in an acrylic cylinder in a dark and sound-insulated chamber. With a constant 65 dB background noise, the session comprised a 5 min acclimation period followed by 4 blocks including a total of 64 trials. […] The ratio of PPI was calculated from the startle response by the following formula: PPI % = 100 × [(PA score) − (pp-P score)]/(PA score), while the PA score was averaged from PA values in the two middle blocks.

[2] = molecular target: T1, human serine racemase (hSR) (Homo sapiens, UniProt Q9GZT4); experiment: Two-step enzymatic assay of hSR racemization (hSR, then DAAO/HRP/Amplex Red); assay type: biochemical; conditions: 0.25 mM ATP
T1 construct: 6xHis (C); made in house; host or cells: E. coli BL21 (pET42b-hSR)
T1 sequence (Q9GZT4 1-340): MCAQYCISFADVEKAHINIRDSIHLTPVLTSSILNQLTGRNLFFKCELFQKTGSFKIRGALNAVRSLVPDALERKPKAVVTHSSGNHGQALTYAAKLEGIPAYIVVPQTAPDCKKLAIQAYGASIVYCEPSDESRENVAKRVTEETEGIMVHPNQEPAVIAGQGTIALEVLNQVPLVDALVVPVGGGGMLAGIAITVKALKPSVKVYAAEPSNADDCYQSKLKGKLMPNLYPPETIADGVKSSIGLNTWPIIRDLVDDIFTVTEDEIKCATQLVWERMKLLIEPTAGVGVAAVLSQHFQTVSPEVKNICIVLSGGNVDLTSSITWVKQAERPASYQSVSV
Method: This assay was designed by the formation of D-serine by hSR and the oxidation of D-serine by D-amino acid oxidase (DAAO) and horseradish peroxidase (HRP) with the peroxidase substrate Amplex Red^TM (10-acetyl-3,7-dihydroxyphenoxazine) (Thermo Fisher Scientific, Lagoas Park, Porto Salvo, Portugal). The hSR activity assay reaction was carried out in 100 mM HEPES buffer, pH 8.0, containing 2.4 µg of hSR protein, 50 µM PLP, 1 mM MgCl2, 0.25 mM ATP, 400 mM L-serine, and 2 times serially diluted α12G (8 mM to 0.2 µM). Compound-free wells were used as blank controls in the assay. All reactions were performed in duplicates. The reaction mixtures were incubated at 37 °C for 4 h. The reaction was stopped by heating the reaction mixtures at 95 °C for 10 min and storage at 4 °C. A reaction mixture for the second-step enzymatic assay, DAAO assay, with a final volume of 100 µL was made with a 10 µL sample from hSR assay, 45 µM FAD, 10 units of HRP, 60 ng DAAO, 10 mM lead acetate, 10 mM Amplex Red^TM, and 100 mM Tris HCl (pH = 8.5). Lead acetate was used to conjugate α12G as the latter would inhibit the DAAO function in the fluorometric assay, leading to an […] of the effects of α12G on hSR. The fluorescence was detected by the TECAN Infinite 200 Microplate Reader (GMI, MN, USA). The racemization percentage was calculated as follows: racemization % = (Fsample, 20 min − Fsample, 0 min)/(Fblank, 20 min − Fblank, 0 min) × 100%. […] The two-step enzymatic assay described in Section 2.3 was designed by the formation of D-serine by hSR and the consequent oxidation of D-serine by DAAO. The inhibition of DAAO, which also degrades D-serine, by α12G will lead to overestimating the effects of racemization by hSR. […] Therefore, lead acetate was applied to conjugate α12G for the determination of racemization. […] On the contrary, when the concentration of α12G is higher than 2 mM, the racemization activity of hSR is inhibited.

- Concentration above which hSR racemization activity is inhibited [2]: higher than 2 mM
- EC100 (concentration of highest racemization activity) ([2]; 400 mM L-serine, lead acetate in second step): 31.25 µM
- Enhancement of hSR racemization ([2]; maximum vs compound-free): about 8 fold
- EC50 ([2]; falling limb of inverted U-shape curve, read-out: EC50 on hSR racemization (progressively inhibiting racemization)): 221 µM
- EC50 ([2]; rising limb of inverted U-shape curve, read-out: EC50 on hSR racemization (favoring racemization)): 8.82 µM
SMILES: O=C(Oc1cc(C(=O)Oc2cc(C(=O)O[C@H]3OC[C@@H](OC(=O)c4cc(O)c(O)c(OC(=O)c5cc(O)c(O)c(OC(=O)c6cc(O)c(O)c(O)c6)c5)c4)[C@H](OC(=O)c4cc(O)c(O)c(OC(=O)c5cc(O)c(O)c(OC(=O)c6cc(O)c(O)c(O)c6)c5)c4)[C@H]3OC(=O)c3cc(O)c(O)c(OC(=O)c4cc(O)c(O)c(OC(=O)c5cc(O)c(O)c(O)c5)c4)c3)cc(O)c2O)cc(O)c1O)c1cc(O)c(O)c(O)c1 [α12G, (2R,3R,4S,5R)-tetrahydro-2H-pyran-2,3,4,5-tetrayl tetrakis(3-((3,4-dihydroxy-5-((3,4,5-trihydroxybenzoyl)oxy)benzoyl)ox)-4,5-dihydroxybenzoate)]
- Effect on PPI deficits [1]: significantly alleviate PPI deficits
